Results from PubChem BioAssay (NCI).
Where “and” joins values, the source holds several entries; their conditions need not be identical. Equal values may be shown once.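 How tested: cells in 96-well plates exposed to compound for 48 hours at five concentrations. Abbreviation: GI50, concentration required for 50% inhibition of growth. TGI denotes the concentration required for complete inhibition of growth.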

Tests used:
Test in all cases: NCI anticancer screen, dose series, 48 h
HL-60(TB) leukemia = system: HL-60(TB) leukemia
MCF7 breast = system: MCF7 breast
BT-549 breast = system: BT-549 breast
SF-539 CNS = system: SF-539 CNS
SK-MEL-28 melanoma = system: SK-MEL-28 melanoma
EKVX NSCLC = system: EKVX NSCLC
UO-31 renal = system: UO-31 renal
NCI-H522 lung = system: NCI-H522 lung
MALME-3M melanoma = system: MALME-3M melanoma
SR leukemia = system: SR leukemia

Structure (SMILES)	GI50 (HL-60(TB) leukemia) [µM]	TGI (HL-60(TB) leukemia) [µM]	GI50 (MCF7 breast) [µM]	TGI (MCF7 breast) [µM]	GI50 (BT-549 breast) [µM]	TGI (BT-549 breast) [µM]	GI50 (SF-539 CNS) [µM]	TGI (SF-539 CNS) [µM]	GI50 (SK-MEL-28 melanoma) [µM]	TGI (SK-MEL-28 melanoma) [µM]	GI50 (EKVX NSCLC) [µM]	TGI (EKVX NSCLC) [µM]	GI50 (UO-31 renal) [µM]	TGI (UO-31 renal) [µM]	GI50 (NCI-H522 lung) [µM]	TGI (NCI-H522 lung) [µM]	GI50 (MALME-3M melanoma) [µM]	TGI (MALME-3M melanoma) [µM]	GI50 (SR leukemia)	TGI (SR leukemia) [µM]
CC1=C(C(=O)Nc2ccc(F)c(Cl)c2)C(c2cccc(O)c2)NC(=O)N1 (stereo unspecified)	6.81	> 100	58.8	> 100	67	> 100	> 100	> 100	58.9	> 100	78.1	> 100	71.4	> 100	49	> 100				
CC(=O)N[C@H]1CSSC[C@@H](C(N)=O)NC(=O)[C@H](C(C)C)NC(=O)[C@H](C)NC(=O)[C@H](Cc2cnc[nH]2)NC1=O	> 100	> 100			> 100	> 100	> 100	> 100	> 100	> 100	> 100	> 100	> 100	> 100	> 100	> 100	> 100	> 100	> 100 µM	> 100
O=C(Nc1c(Cl)cc([N+](=O)[O-])cc1Cl)C(=O)C(C1OC(=O)c2ccccc21)[N+](=O)[O-] (stereo unspecified)		> 100						> 100		> 100		> 100		> 100				> 100		> 100
COc1ccc(OC)c2c(C(=O)O)c(Cc3ccccc3)ccc12		> 100								> 100		> 100		> 100		> 100		> 100		> 100
Clc1ccc2c(c1)-c1c3c(nn1-c1ccccc1)-c1ccccc1SC3O2 (stereo unspecified)		> 100						> 100		> 100		> 100		> 100		87.5		> 100		
CCSc1nc(SCC)c2cn[nH]c2n1	72.4	> 100	26.5	> 100	37.5	> 100	21.8	82.9	64.6	> 100	18.9	> 100	34.9	> 100	35.7	> 100	> 100	> 100		
CCOC(=O)c1ccc(C)c(N=NN(C)C)c1		> 100						> 100		> 100		> 100		> 100		> 100		> 100		> 100
O=C1CCC(O)=C1N=Nc1ccccc1		> 100						> 100		> 100		> 100		> 100				> 100		
O=C(c1ccccc1)C1OC12C(=O)Nc1ccccc12 (stereo unspecified)		9.73						57.4		> 100		> 100		> 100		28.2		> 100		
c1ccc(C2Nc3ccccc3C3OCCCC23)cc1 (stereo unspecified)		51.1						31.5				68.4		> 100				> 100		
C[C@]12CC[C@@H]3c4cc(OCC(F)(F)F)c(O)cc4/C(=N/O)C[C@H]3[C@@H]1CC[C@@H]2O	0.031	> 100		33.9				0.0725	0.0637	25.9		28.9	0.149	20.8	0.0507	25.6		29.6	0.00319 µM and 0.0157 µM	
CSC(C1c2ccccc2N(c2ccc(C)cc2)c2[nH]c(=O)n(C)c(=O)c21)S(=O)(=O)c1ccc(C)cc1 (stereo unspecified)		> 100						> 100		> 100		> 100		> 100		> 100		> 100		
CCN(CC)c1ccc(N=Nc2ccc(-c3nc4ccc[n+](C)c4s3)cc2)cc1								23				58.8		46		28.5		26.3		53.7
C/C(CC(=O)NCCc1ccccc1)=N\NC(=O)C[n+]1ccccc1		> 100						> 100		> 100		> 100		> 100		> 100		> 100		
CCn1c(SCc2ccc(C)cc2)nnc1-c1nn(-c2ccc(Cl)cc2Cl)c(-c2ccc(Cl)cc2)c1C	1.6	5.47	2.26	11.4	1.79	5.75	3.02	11.8	3.11	15.3	2.88	13	2.66	10.8	1.35	5.2	2.15	8.88		
CN(C)c1cc[c]([Sn]([c]2ccc(N(C)C)cc2)([c]2ccc(N(C)C)cc2)[c]2ccc(N(C)C)cc2)cc1	1.89	6.93					15.8	33.4			6.74	28	8.76	21.1						
C1C[OH+]CC[OH+]CC[OH+]CC[OH+]CC[OH+]1.[Cl-].[V]	> 100	> 100					16.5	31.6	25.1	> 100			86.3	> 100	> 100	> 100	13.4	32		
CC(CO)(CO)NCCCCn1ccc2c1C(=O)c1c(c(O)c3ccccc3c1O)C2=O	2.37	> 100	17.1	53.4	19.9	51.2	15.3	47.1			17.8	44.5	4.18	> 100			1.69	7.38		
C=CCc1ccc(Oc2cc(CC=C)c3c(c2O)O[C@@H](CO)[C@H]3c2ccc(O)c(-c3cc(CC=C)ccc3O)c2)cc1		55.3						> 100		> 100		> 100		> 100		32.6		> 100		46.9
COc1ccc(CCN2COc3c([C@@H](C)CCC=C(C)C)ccc(C)c3C2)cc1OC	4.11	60.9	3.29	11			4.48	15.9	2.21	4.94	5.14	25.4	2.45	12.3			1.53	3.18		
